Entries after “also recorded” stand apart in the source; their conditions may differ.
Legend:
ATGL [1] = experiment: ATGL level in primary mouse hepatocytes (western blot); type: cell-based; conditions: 24 hours
Procedure: To further strengthen the efficiency of the compounds 9 and 107, primary hepatocytes were isolated from mice and these compounds were treated in a dose dependent manner for 24 hours. Primary hepatocytes and adipose tissue explants were isolated from mice and subjected to compound treatment for 24 hours at the doses of 100 nM, 500 nM and 1 μM. Post cell harvesting, western blot was carried out with the lysate to check the ATGL level. ATGL and COP1 antibodies were used. Actin served the purpose of a loading control.
1. Hepatocytes—2-4 months old chow-fed black male mouse (C57bl/6) was sacrificed using chloroform (SRL) and was cleaned with 70% ethanol. […] Blood was drawn from the heart in order to prevent backflow into liver while perfusion. The butterfly cannula was inserted into the PV and 20 ml of HBSS (Hank's Balanced Salt Solution; 5 mM KCl, 0.4 mM KH2PO4, 4 mM NaHCO3, 140 mM NaCl, 0.3 mM Na2HPO4, 6 mM Glucose, HEPES, 0.5 mM MgCl2·6H2O, 0.4 mM MgSO4·7H2O, 0.5 mM EDTA; not containing 1 mM CaCl2)) was allowed to pass through the liver (Perfusion) at a constant flow rate of 3 ml/min, maintained by Masterflex digital peristaltic pump (Cole-Parmer). The IVC was cut as soon as the passage of the buffer through the liver began, so that blood and perfusate from liver is drained through the IVC. The liver blanched and became pale in color upon this treatment.
After the passage of HBSS, 25 ml of Collagenase (Roche) solution (1 mg/ml) in HBSS (containing 1 mM CaCl2)) was allowed to pass through the liver at a constant flow rate of 2 ml/min. After this digestion, the flow was stopped, the cannula removed and the pale and soggy lobes of the liver were gently excised from the body. The gall bladder was removed from the isolated liver. The pieces of digested liver tissue were then minced on a 10 cm culture plate in HBSS (containing 1 mM CaCl2)). The resulting suspension was then passed through a […] cell strainer (SPL) to allow hepatocytes to pass through to the filtrate and retain cellular clumps and undigested tissue. The filtrate was centrifuged at 50 g for 2 minutes at 4° C. […]

ATGL [2] = experiment: Immunoprecipitation assay of ATGL ubiquitination in myc-ATGL HepG2 cells; type: cell-based; conditions: 5 μM, 24 hours, MG-132, poly ubiquitin smear
Procedure: To this end, an immunoprecipitation assay was performed wherein HepG2 cells overexpressing myc-ATGL were transfected with HA-Ubiquitin and treated with 5 μM of the compounds 9, 10, 107, 215, 219 and 238. MG-132, a proteasomal inhibitor, was added 4 hours before harvesting the cells. Immune complexes were pulled down with anti-myc antibody and immunoblot was done using anti-HA antibody. The resultant smears on the blot reflect the ubiquitination status of ATGL.
For checking the change in the ubiquitination status of ATGL on compound treatment, Myc-ATGL expressing HepG2 cells (ATGL overexpressing cell line) was transfected with 2 μg of a plasmid harboring the HA tagged ubiquitin gene using Lipofectamine 2000 reagent (Invitrogen) in OptiMEM media (HiMedia). Fresh DMEM complete media was added after 8-10 hours of transfection. After roughly 24 hours of transfection, 5 μM of the compounds 9, 10 and 107 was added and cells were harvested post 24 hours of treatment. 4 hours prior to cell harvesting, 10 μM of proteasomal inhibitor MG132 (Calbiochem, Merck Millipore) was added to the cells. Proteins were isolated from the cells and protein concentration was estimated as described previously. 30 μl of PureProteome Protein A/G Mix Magnetic Beads (Merck Millipore) was taken in a 1.5 ml microcentrifuge tube, placed in a Magna Rack (Merck Millipore) and allowed to adhere to the side of the tube. 200 μg of protein was used for immunoprecipitation reaction in a reaction volume of 1 ml. 2 μl of anti-Myc primary antibody (Cell Signaling Technology) was added and the tube was incubated overnight at 4° C. in a rotary shaker. The next day, the tube was placed back in the Magna Rack and the beads were allowed to attach to the tube. To remove non-specific and unattached reactants, 1×PBS and 0.1% Triton-X was used for washing. 2× loading dye and Lysis Buffer was added and heated at 95° C. for 10 minutes to allow the immune complex to dislodge from the magnetic beads. Western Blot was performed subsequently as described before with anti-HA primary antibody for immunoblotting (Cell Signaling Technology). The activity trends of the synthesized compounds are disclosed in Table-5.

ATGL [3] = experiment: qPCR of ATGL mRNA in HepG2 cells; type: cell-based; conditions: 5 μM and 10 μM, 24 hours
Procedure: (§1) Ubiquitination of ATGL by COP1 is a post translational event, therefore, it is expected that the mRNA level of ATGL will not change compared to control upon treatment with the compound of the present disclosure which inhibit COP1. To establish this, HepG2 cells were treated with 5 μM and 10 μM of the compounds 9, 107, 171, 179 and 73 for 24 hours. RNA was isolated using TRIzol reagent followed by chloroform treatment and precipitation with isopropanol. cDNA was obtained from the isolated RNA and qPCR was carried out using SyBr green reagent. COP1 and ATGL gene expression levels were checked. 18s was used as control. FIG. 8 illustrates that compounds exert no effect on the mRNA levels of ATGL.

COP1 = experiment: qPCR of COP1 mRNA in HepG2 cells; type: cell-based; conditions: 5 μM and 10 μM, 24 hours
Procedure: as §1

[4] = Metabolic stability using Human Liver Microsomes; type: in vitro ADME; conditions: for % QH (Well stirred model): NADPH, 0-60 min
Procedure: 1 mM stock solution of test compound was prepared in DMSO and diluted with Acetonitrile:Water (1:1) to get a 100 μM working concentration. 100 mL of Milli Q water was added to K2HPO4 (1.398 g) and KH2PO4 (0.27 g) to get final pH 7.4 solution of potassium phosphate buffer. […] The above mixture was pre incubated for 15 minutes at 37° C. After pre incubation, 32.5 μL of the mixture was added to 17.5 μL of buffer, this was incubated for 60 minutes at 37° C. [60 min Without Cofactor (NADPH)]. 16.25 μL of the pre incubated mixture and 8.75 μL of cofactor was added to 150 μL of acetonitrile containing internal standard [0 min Sample]. 62 μL of cofactor was added to remaining pre incubation mixture [Incubation mixture]. 25 μL of incubation mixture at 0, 5, 15, 30, 60 min and 60 min without cofactor were precipitated with 150 μL of acetonitrile containing internal standard, vortexed and centrifuged at 4000 rpm at 4° C. for 20 minutes. 120 μL of supernatant was diluted with 120 μL of water and analyzed by LC-MS/MS [sample preparation].

SMILES	Clearance class from % QH [4]	% QH (Well stirred model) [4]	ATGL level in primary mouse hepatocytes (ATGL [1])	ATGL ubiquitination in HepG2 cells (ATGL [2])	ATGL mRNA level (ATGL [3])	COP1 mRNA level (COP1)
COCCn1c(C)nc2ccc(NC(=O)Nc3cccc(C(C)=O)c3)cc2c1=O [Compound 107, 1-(3-acetylphenyl)-3-(3-(2-methoxyethyl)-2-methyl-4-oxo-3,4-dihydroquinazolin-6-yl)urea]	–	–	increase ATGL level; also recorded: subtle inclination towards increasing ATGL level	effective in reducing the ATGL ubiquitination by COP1; also recorded: capability of subtly reducing ubiquitination of ATGL	no significant changes	no significant changes
CC(=O)c1cccc(NC(=O)Nc2ccc3ncn(CCCN4CCOCC4)c(=O)c3c2)c1 [Compound 139, 1-(3-acetylphenyl)-3-(3-(3-morpholinopropyl)-4-oxo-3,4-dihydroquinazolin-6-yl)urea]	medium clearance	35.3%	–	–	–	–
COCC(C)n1cnc2ccc(NC(=O)Nc3cccc(C(C)=O)c3)cc2c1=O (stereo not drawn) [Compound 179, 1-(3-acetylphenyl)-3-(3-(1-methoxypropan-2-yl)-4-oxo-3,4-dihydroquinazolin-6-yl)urea]	–	–	–	–	no significant changes	no significant changes
COCCn1c(-c2cccnc2)nc2ccc(NC(=O)Nc3cccc(C(C)=O)c3)cc2c1=O [Compound 215, 1-(3-acetylphenyl)-3-(3-(2-methoxyethyl)-4-oxo-2-(pyridin-3-yl)-3,4-dihydroquinazolin-6-yl)urea]	lower clearance	15.5%	–	no such effects; also recorded: no subtle reduction in the ubiquitination smear	–	–

Further lines, with some results ahead:

Clearance class from % QH [4]	% QH (Well stirred model) [4]	SMILES	ATGL level in primary mouse hepatocytes (ATGL [1])	ATGL ubiquitination in HepG2 cells (ATGL [2])	ATGL mRNA level (ATGL [3])	COP1 mRNA level (COP1)
lower clearance	21.26%	COCCn1cnc2ccc(NC(=O)Nc3cccc(C(C)=O)c3)cc2c1=O [Compound 9, 1-(3-acetylphenyl)-3-(3-(2-methoxyethyl)-4-oxo-3,4-dihydroquinazolin-6-yl)urea]	increase ATGL level; also recorded: subtle inclination towards increasing ATGL level	effective in reducing the ATGL ubiquitination by COP1; also recorded: subtle reduction in the ubiquitination smear	no significant changes	no significant changes
lower clearance	24.5%	COCCn1c(-c2ccncc2)nc2ccc(NC(=O)Nc3cccc(C(C)=O)c3)cc2c1=O [Compound 219, 1-(3-acetylphenyl)-3-(3-(2-methoxyethyl)-4-oxo-2-(pyridin-4-yl)-3,4-dihydroquinazolin-6-yl)urea]	–	no such effects; also recorded: no subtle reduction in the ubiquitination smear	–	–
higher clearance	83.5%	COCCn1c(CN2CCCCC2)nc2ccc(NC(=O)Nc3cccc(C(C)=O)c3)cc2c1=O [Compound 238, 1-(3-acetylphenyl)-3-(3-(2-methoxyethyl)-4-oxo-2-(piperidin-1-ylmethyl)-3,4-dihydroquinazolin-6-yl)urea]	increase ATGL and COP1 levels dose dependently; also recorded: enhance ATGL levels at 1 μM and 5 μM doses	decrease ATGL ubiquitination by COP1; also recorded: decreased	–	–

From US12528777B2, “Quinazolinones derivatives for treatment of non-alcoholic fatty liver disease, preparation and use thereof” (Council of Scientific and Industrial Research, priority 2020, dated 2026)
